Consider 26 molecules from ChEMBL document CHEMBL1157822, “Synthesis and SAR of novel isoquinoline CXCR4 antagonists with potent anti-HIV activity” (Bioorg Med Chem Lett, 2010).

Active and inactive are the calls of the source. No cut-off for these calls is given here.

Data set [1] in a line: Cytotoxicity against human HOS cells expressing human CXCR4/CCR5/CD4/pHIV-LTR luciferase. The data set is classed as cell-based.
Data set [2] has as its system Human immunodeficiency virus 1. Put plainly: Antiviral activity against HIV1 3B infected in human HOS cells expressing human CXCR4/CCR5/CD4/pHIV-LTR luciferase assessed as inhibition of viral infection to cells. The class given is functional, organism-based. Conditions: Human immunodeficiency virus 1, 3B.
Data set [3] in a line: Half life in rat at 1 mg/kg, iv. The data set is classed as ADME, organism-based. Details: dose 1 mg/kg, route intravenous. The following applies: in vivo.
Data set [4] is described as follows: Oral bioavailability in rat at 3 mg/kg. The data set is classed as ADME, organism-based. Conditions: in vivo.
For data set [5], the target named is T1, C-X-C chemokine receptor type 4 (Homo sapiens, UniProt P61073). The experiment in a line: Binding affinity to human CXCR4 expressed in HEK293 cells. The data set is classed as cell-based.
T1 sequence (P61073 whole entry): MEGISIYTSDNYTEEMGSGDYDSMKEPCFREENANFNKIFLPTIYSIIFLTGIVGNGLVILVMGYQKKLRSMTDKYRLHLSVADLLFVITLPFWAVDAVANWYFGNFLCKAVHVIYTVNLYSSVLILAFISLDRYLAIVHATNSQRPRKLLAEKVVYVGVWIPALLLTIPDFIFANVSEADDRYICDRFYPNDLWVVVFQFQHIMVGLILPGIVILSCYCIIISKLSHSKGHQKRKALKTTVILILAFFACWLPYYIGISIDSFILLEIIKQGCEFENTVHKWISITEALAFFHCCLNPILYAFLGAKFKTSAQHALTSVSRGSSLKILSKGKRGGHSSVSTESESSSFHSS
A short description of data set [6]: Volume of distribution in rat at 1 mg/kg, iv. The data set is classed as ADME, organism-based. Details: dose 1 mg/kg, route intravenous. The following applies: in vivo.
Data set [7] can be described thus: Clearance in rat at 1 mg/kg, iv. The data set is classed as ADME, organism-based. Also noted: dose 1 mg/kg, route intravenous. The following applies: in vivo.
Data set [8] addresses T1, C-X-C chemokine receptor type 4. The experiment in a line: Antagonist activity at human CXCR4 expressed in HEK293 cells. The class given is functional, cell-based.

As to `NCCCCN(Cc1nccc2ccccc12)C1CCCc2cccnc21` (racemic), in data set [1], the 50% cytotoxic concentration (CC50) came out at 8200 nM. Also, the concentration for half-maximal inhibition (IC50) in data set [2] is 11 nM.
For `CN(Cc1cc2ccccc2cn1)[C@H]1CCCc2cccnc21`, in that order: 650 nM and 160 nM.
The like results for `CN1CCC[C@@H]1C(=O)NCc1c(CN(C)[C@H]2CCCc3cccnc32)ncc2ccccc12` were, in that order, 690 nM and 12 nM.
For `CN(Cc1ncc2ccccc2c1C#N)[C@H]1CCCc2cccnc21`, in that order: 1300 nM and 72 nM.
In turn, `NCCCCN(Cc1ccccn1)C1CCCc2cccnc21` (racemic) came in with a half-maximal cytotoxic concentration (CC50) in data set [1] of 11000 nM. Moreover, the IC50 in data set [2] amounted to 70 nM.
The like results for `CN(Cc1ncc2ccccc2c1CCCNC(=N)N)[C@H]1CCCc2cccnc21` were, in that order, 6500 nM and 17 nM.
The like results for `NCCCCN(Cc1cc2ccccc2cn1)C1CCCc2cccnc21` (racemic) were, in that order, 13000 nM and 12 nM.
`CN(Cc1ncc2ccccc2c1CNS(C)(=O)=O)[C@H]1CCCc2cccnc21` returned a CC50 in data set [1] of 2000 nM. Also, in data set [2], the IC50 was 41 nM.
For the molecule `CN(Cc1ncc2ccccc2c1CN)[C@H]1CCCc2cccnc21`, the CC50 in data set [1] is 3100 nM. Also, the IC50 in data set [2] amounted to 27 nM.
As to `CN(Cc1ncc2ccccc2c1CCC#N)[C@H]1CCCc2cccnc21`, the CC50 in data set [1] was determined as 950 nM. Also, the concentration for half-maximal inhibition (IC50) in data set [2] amounted to 21 nM.
As to `Cn1ccnc1CN(CCCCN)C1CCCc2cccnc21` (racemic), the CC50 in data set [1] is over 20000 nM. Further, in data set [2], the IC50 was found to be 120 nM.
Molecule `CN1CCC[C@H]1C(=O)NCc1c(CN(C)[C@H]2CCCc3cccnc32)ncc2ccccc12` returned a cytotoxic concentration (CC50) in data set [1] of 540 nM. Moreover, the IC50 in data set [2] turned out to be 44 nM.
In the case of `NCCCCN(Cc1cccnc1)C1CCCc2cccnc21` (racemic), the 50% cytotoxic concentration (CC50) in data set [1] is over 20000 nM. Moreover, in data set [2], the concentration for half-maximal inhibition (IC50) is over 20000 nM.
Molecule `CN(C)Cc1c(CN(C)[C@H]2CCCc3cccnc32)ncc2ccccc12` displayed a CC50 in data set [1] of 5900 nM. Further, in data set [2], the 50% inhibitory concentration (IC50) turned out to be 48 nM.
`CN(C)CC(=O)NCc1c(CN(C)[C@H]2CCCc3cccnc32)ncc2ccccc12` showed a half-life in data set [3] of 1.5 h. In data set [1], the cytotoxic concentration (CC50) was determined as 480 nM. Moreover, the half-inhibitory concentration (IC50) in data set [2] amounted to 12 nM; in data set [5] it was 16 nM. The bioavailability in data set [4] was 10%. The distribution volume (Vd) in data set [6] is 1.5 L/kg. For the same molecule, in data set [7], the clearance was found to be 11 mL/min/kg. Further, the outcome in data set [8] was Active.
As to `CN(Cc1ncc2ccccc2c1CCCNS(C)(=O)=O)[C@H]1CCCc2cccnc21`, the half-life in data set [3] was 5.8 h. Further, the CC50 in data set [1] was 690 nM. The half-maximal inhibitory concentration (IC50) in data set [2] turned out to be 16 nM. The same molecule yielded a bioavailability in data set [4] of 4%. Also, the Vd in data set [6] turned out to be 1.4 L/kg. The molecule further displayed a clearance in data set [7] of 9.5 mL/min/kg.
`NCCCCN(Cc1cn2ccccc2n1)C1CCCc2cccnc21` (racemic) gave a CC50 in data set [1] of over 20000 nM. Moreover, the IC50 in data set [2] is 42 nM.
In the case of `NCCCCN(Cc1ccc2ccccc2n1)C1CCCc2cccnc21` (racemic), half-maximal cytotoxicity in data set [1] (CC50) was put at 12000 nM. In data set [2], the IC50 is 34 nM.
The like results for `CN(Cc1ncc2ccccc2c1CCCN)[C@H]1CCCc2cccnc21` were, in that order, 1000 nM and 12 nM.
`Cn1cncc1CN(CCCCN)C1CCCc2cccnc21` (racemic) registered a CC50 in data set [1] of over 20000 nM. The IC50 in data set [2] was over 20000 nM.
`NCCCCN(Cc1nc2ccccc2[nH]1)C1CCCc2cccnc21` (racemic) came in with a cytotoxic concentration (CC50) in data set [1] of 13000 nM. The half-maximal inhibitory concentration (IC50) in data set [2] came out at 23 nM. Further, in data set [8], the result was Active.
Consider `CN(Cc1ncc2ccccc2c1CNC(=N)N)[C@H]1CCCc2cccnc21`, for which the half-life in data set [3] was 12 h. Also, in data set [1], the half-maximal cytotoxic concentration (CC50) came out at 9000 nM. Further, the IC50 in data set [2] amounted to 20 nM. The bioavailability in data set [4] was determined as 0%. Also, the Vd in data set [6] was 9 L/kg. For the same molecule, the clearance in data set [7] was 16 mL/min/kg.
In data set [1], `NCCCCN(Cc1nccs1)C1CCCc2cccnc21` (racemic) returned a CC50 of 9700 nM. Further, the half-inhibitory concentration (IC50) in data set [2] turned out to be 340 nM.
Turning to `CN(C)CCCc1c(CN(C)[C@H]2CCCc3cccnc32)ncc2ccccc12`, the half-life in data set [3] was 2.9 h. The half-maximal cytotoxic concentration (CC50) in data set [1] is 650 nM. Besides, the half-inhibitory concentration (IC50) in data set [2] was found to be 5 nM; in data set [5] it was 3.4 nM. The same molecule came in with a bioavailability in data set [4] of 6%. This molecule displayed a Vd in data set [6] of 2.9 L/kg. This molecule came in with a clearance in data set [7] of 6.1 mL/min/kg. The result in data set [8] was Active.
With `NCCCCN(Cc1nc2ccccc2s1)C1CCCc2cccnc21` (racemic), the midpoint of cytotoxicity in data set [1], the CC50, lay at 13000 nM. In data set [2], the IC50 is 200 nM.
The molecule `CN(C)C(=O)NCCCc1c(CN(C)[C@H]2CCCc3cccnc32)ncc2ccccc12` had a half-life in data set [3] of 3.1 h. In data set [1], it took 750 nM to reach half-maximal cytotoxicity (CC50). The half-inhibitory concentration (IC50) in data set [2] was found to be 38 nM. This molecule also yielded a bioavailability in data set [4] of 20%. The distribution volume (Vd) in data set [6] turned out to be 1.7 L/kg. For the same molecule, in data set [7], the clearance was found to be 16 mL/min/kg.
